Reference: PMC7463651, “Phase I/Ib Study of Tenalisib (RP6530), a Dual PI3K δ/γ Inhibitor in Patients with Relapsed/Refractory T-Cell Lymphoma” (Cancers, 2020)
“Also recorded” adds a separate entry of the source.

System: patients with relapsed/refractory T Cell Lymphoma
Assay: Safety assessment (adverse events per CTCAE v4.03, DLT/MTD) in phase I/Ib study
Type: in vivo, human
Protocol: Protocol defined hematological or non-hematological toxicity was considered dose-limiting if it occurred during the first cycle (within the first 28 d) and was considered related to Tenalisib. Hematological DLTs was defined as Grade 4 anemia; Grade 4 neutropenia for >7 days, or Grade ≥3 febrile neutropenia with fever >38.5 °C [101 °F]; Grade 4 thrombocytopenia for >7 days, or Grade ≥3 thrombocytopenia associated with Grade >2 bleeding.
Safety assessment included adverse event (AE) and serious adverse events (SAE) as per Common Terminology Criteria for Adverse Events (CTCAE), Version 4.03. During dose escalation, safety assessments were performed at weekly intervals during Cycle 1 and Cycle 2 and at two weekly intervals during Cycle 3 and 4. After completion of Cycle 4, safety assessments were performed on Day 1 of each subsequent cycle. In dose expansion phase, all safety assessments were performed on Day 1 of each cycle.

[1] = Relationship-Related, Dose Escalation (N = 19)
[2] = Relationship-Related, Dose Expansion (N = 39)
[3] = Relationship-Related, Total (N = 58)
[4] = Relationship-all, Dose Escalation (N = 19)
[5] = Relationship-all, Dose Expansion (N = 39)

CC[C@H](Nc1ncnc2[nH]cnc12)c1oc2ccccc2c(=O)c1-c1cccc(F)c1 [Tenalisib]
Maximum tolerated dose (MTD) (BID, fasting): 800 mg | Number of related AEs (CTCL patients): 208 | Number of related ≥Grade 3 AEs (CTCL patients): 25 | Patients with related AEs (CTCL patients): 27 (90%) n (%) | Patients with related ≥Grade 3 AEs (CTCL patients): 12 (40%) n (%) | Dose-limiting toxicities (DLT) (Cohort 4, 800 mg BID (fed)): Two dose-limiting toxicities; also recorded: Two DLTs (Grade 3 ALT increased and Grade 3 erythematous rash) | Number of related AEs (PTCL patients): 51 | Neutropenia: patients with event [1]: 2 (10.5%) n (%) | Pruritus: count of events [1]: 1 | Pruritus: patients with event [1]: 1 (5.3%) n (%) | Pyrexia: patients with event [1]: 0 n (%) | Vomiting: count of events [1]: 3 | Vomiting: patients with event [1]: 2 (10.5%) n (%) | Alanine aminotransferase increased: count of events [2]: 18 | Alanine aminotransferase increased: patients with event [2]: 12 (30.8%) n (%) | Anemia: count of events [2]: 2 | Anemia: patients with event [2]: 2 (5.1%) n (%) | Aspartate aminotransferase increased: count of events [2]: 20 | Aspartate aminotransferase increased: patients with event [2]: 12 (30.8%) n (%) | Blood alkaline phosphatase increased: count of events [2]: 2 | Blood alkaline phosphatase increased: patients with event [2]: 2 (5.1%) n (%) | Blood thyroid stimulating hormone increased: count of events [2]: 3 | Blood thyroid stimulating hormone increased: patients with event [2]: 2 (5.1%) n (%) | Dehydration: count of events [2]: 3 | Dehydration: patients with event [2]: 3 (7.7%) n (%) | Diarrhea: count of events [2]: 10 | Diarrhea: patients with event [2]: 9 (23.1%) n (%) | Dizziness: count of events [2]: 3 | Dizziness: patients with event [2]: 3 (7.7%) n (%) | Dyspepsia: count of events [2]: 2 | Dyspepsia: patients with event [2]: 2 (5.1%) n (%) | Erythema: count of events [2]: 2 | Erythema: patients with event [2]: 2 (5.1%) n (%) | Fatigue: count of events [2]: 7 | Fatigue: patients with event [2]: 7 (17.9%) n (%) | Gamma-glutamyltransferase increased: count of events [2]: 7 | Gamma-glutamyltransferase increased: patients with event [2]: 5 (12.8%) n (%) | Headache: count of events [2]: 2 | Headache: patients with event [2]: 2 (5.1%) n (%) | Muscle spasms: count of events [2]: 3 | Muscle spasms: patients with event [2]: 3 (7.7%) n (%) | Nausea: count of events [2]: 2 | Nausea: patients with event [2]: 2 (5.1%) n (%) | Neutropenia: count of events [2]: 1 | Neutropenia: patients with event [2]: 1 (2.6%) n (%) | Pruritus: count of events [2]: 3 | Pruritus: patients with event [2]: 3 (7.7%) n (%) | Pyrexia: count of events [2]: 5 | Pyrexia: patients with event [2]: 3 (7.7%) n (%) | Vomiting: count of events [2]: 1 | Vomiting: patients with event [2]: 1 (2.6%) n (%) | Alanine aminotransferase increased: count of events [3]: 31 | Alanine aminotransferase increased: patients with event [3]: 18 (31.0%) n (%) | Anemia: count of events [3]: 3 | Anemia: patients with event [3]: 3 (5.2%) n (%) | Aspartate aminotransferase increased: count of events [3]: 35 | Aspartate aminotransferase increased: patients with event [3]: 18 (31.0%) n (%) | Blood alkaline phosphatase increased: count of events [3]: 3 | Blood alkaline phosphatase increased: patients with event [3]: 3 (5.2%) n (%) | Blood thyroid stimulating hormone increased: count of events [3]: 5 | Blood thyroid stimulating hormone increased: patients with event [3]: 4 (6.9%) n (%) | Dehydration: count of events [3]: 4 | Dehydration: patients with event [3]: 4 (6.9%) n (%) | Diarrhea: count of events [3]: 14 | Diarrhea: patients with event [3]: 12 (20.7%) n (%) | Dizziness: count of events [3]: 5 | Dizziness: patients with event [3]: 5 (8.6%) n (%) | Dyspepsia: count of events [3]: 3 | Dyspepsia: patients with event [3]: 3 (5.2%) n (%) | Erythema: count of events [3]: 3 | Erythema: patients with event [3]: 3 (5.2%) n (%) | Fatigue: count of events [3]: 9 | Fatigue: patients with event [3]: 9 (15.5%) n (%) | Gamma-glutamyltransferase increased: count of events [3]: 9 | Gamma-glutamyltransferase increased: patients with event [3]: 7 (12.1%) n (%) | Headache: count of events [3]: 6 | Headache: patients with event [3]: 5 (8.6%) n (%) | Muscle spasms: count of events [3]: 6 | Muscle spasms: patients with event [3]: 5 (8.6%) n (%) | Nausea: count of events [3]: 4 | Nausea: patients with event [3]: 3 (5.2%) n (%) | Neutropenia: count of events [3]: 3 | Neutropenia: patients with event [3]: 3 (5.2%) n (%) | Pruritus: count of events [3]: 4 | Pruritus: patients with event [3]: 4 (6.9%) n (%) | Pyrexia: count of events [3]: 5 | Pyrexia: patients with event [3]: 3 (5.2%) n (%) | Vomiting: count of events [3]: 4 | Vomiting: patients with event [3]: 3 (5.2%) n (%) | Grade 3/4 Alanine aminotransferase increased: count of events (Relationship-all): 5 | Grade 3/4 Alanine aminotransferase increased: patients with event (Relationship-all): 5 (26.3%) n (%) | Grade 3/4 Anemia: count of events (Relationship-all): 2 | Grade 3/4 Anemia: patients with event (Relationship-all): 2 (10.5%) n (%) | Grade 3/4 Aspartate aminotransferase increased: count of events (Relationship-all): 4 | Grade 3/4 Aspartate aminotransferase increased: patients with event (Relationship-all): 4 (21.1%) n (%) | Grade 3/4 Fatigue: count of events (Relationship-all): 1 | Grade 3/4 Fatigue: patients with event (Relationship-all): 1 (5.3%) n (%) | Grade 3/4 Hyponatremia: count of events (Relationship-all): 2 | Grade 3/4 Hyponatremia: patients with event (Relationship-all): 2 (10.5%) n (%) | Grade 3/4 Neutropenia: count of events (Relationship-all): 2 | Grade 3/4 Neutropenia: patients with event (Relationship-all): 2 (10.5%) n (%) | Grade 3/4 Thrombocytopenia: count of events (Relationship-all): 1 | Grade 3/4 Thrombocytopenia: patients with event (Relationship-all): 1 (5.3%) n (%) | Abdominal pain: count of events [4]: 3 | Abdominal pain: patients with event [4]: 3 (15.8%) n (%) | Alanine aminotransferase increased: count of events [4]: 13 | Alanine aminotransferase increased: patients with event [4]: 6 (31.6%) n (%) | Anemia: count of events [4]: 6 | Anemia: patients with event [4]: 3 (15.8%) n (%) | Aspartate aminotransferase increased: count of events [4]: 16 | Aspartate aminotransferase increased: patients with event [4]: 7 (36.8%) n (%) | Blood creatinine increased: count of events [4]: 1 | Vomiting: count of events [4]: 5 | Vomiting: patients with event [4]: 4 (21.1%) n (%) | Abdominal pain: count of events [5]: 6 | Abdominal pain: patients with event [5]: 5 (12.8%) n (%) | Alanine aminotransferase increased: count of events [5]: 20 | Alanine aminotransferase increased: patients with event [5]: 14 (35.9%) n (%) | Anemia: count of events [5]: 10 | Anemia: patients with event [5]: 6 (15.4%) n (%) | Aspartate aminotransferase increased: count of events [5]: 21 | Aspartate aminotransferase increased: patients with event [5]: 14 (35.9%) n (%) | Blood creatinine increased: count of events [5]: 6 | Blood creatinine increased: patients with event [5]: 6 (15.4%) n (%) | Blood thyroid stimulating hormone increased: count of events [5]: 5 | Blood thyroid stimulating hormone increased: patients with event [5]: 4 (10.3%) n (%) | Constipation: count of events [5]: 5 | Constipation: patients with event [5]: 5 (12.8%) n (%) | Cough: count of events [5]: 9 | Cough: patients with event [5]: 7 (17.9%) n (%) | Decreased appetite: count of events [5]: 8 | Decreased appetite: patients with event [5]: 7 (17.9%) n (%) | Dehydration: count of events [5]: 13 | Dehydration: patients with event [5]: 10 (25.6%) n (%) | Diarrhea: count of events [5]: 19 | Diarrhea: patients with event [5]: 14 (35.9%) n (%) | Dizziness: count of events [5]: 9 | Dizziness: patients with event [5]: 7 (17.9%) n (%) | Dry skin: count of events [5]: 6 | Dry skin: patients with event [5]: 5 (12.8%) n (%) | Dyspnea: count of events [5]: 2 | Dyspnea: patients with event [5]: 2 (5.1%) n (%) | Fatigue: count of events [5]: 19 | Fatigue: patients with event [5]: 18 (46.2%) n (%) | Gamma-glutamyl transferase increased: count of events [5]: 9 | Gamma-glutamyl transferase increased: patients with event [5]: 6 (15.4%) n (%) | Headache: count of events [5]: 9 | Headache: patients with event [5]: 7 (17.9%) n (%) | Hypokalemia: count of events [5]: 5 | Hypokalemia: patients with event [5]: 3 (7.7%) n (%) | Hyponatremia: count of events [5]: 5 | Hyponatremia: patients with event [5]: 4 (10.3%) n (%) | Insomnia: count of events [5]: 4 | Insomnia: patients with event [5]: 3 (7.7%) n (%) | Muscle spasms: count of events [5]: 4 | Muscle spasms: patients with event [5]: 4 (10.3%) n (%) | Nausea: count of events [5]: 9 | Nausea: patients with event [5]: 9 (23.1%) n (%) | Pruritus: count of events [5]: 5 | Pruritus: patients with event [5]: 5 (12.8%) n (%) | Psychiatric disorders: count of events [5]: 12 | Psychiatric disorders: patients with event [5]: 7 (17.9%) n (%) | Pyrexia: count of events [5]: 17
